# Test results taken from patent US11753407B2, “Compounds for treating spinal muscular atrophy” (PTC Therapeutics, Inc., priority 2012, dated 2023).
# Key:
# [1] = system: SMN2 minigene mRNA (SMN2-A minigene) in HEK293H cells; test: SMN2 minigene mRNA splicing RT-qPCR assay in cultured cells; type: cell-based, human; conditions: Homo sapiens, HEK293-H; concentration increasing full length SMN2 mRNA 1.5-fold relative to vehicle-treated cells; HEK293H cells with SMN2-A minigene, 24 hours, 7-point concentration data; read-out: EC1.5x for production of full length SMN2 mRNA
# Summary of the method: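 Stable SMN2-A minigene HEK293H; cpd 7-pt 3.16-fold series, 200× in DMSO, 24 h, 37 °C, n=2. Lysates → multiplex RT-qPCR (minigene FL + GAPDH), efficiency-corrected ΔΔCt vs vehicle. EC1.5× = 1.5-fold FL mRNA gain.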
# [2] = system: Smn protein in SMA patient fibroblast cells (GM03813); test: Smn protein assay in cultured cells (SMN HTRF); type: cell-based, human; conditions: SMA patient fibroblast cells, 48 hours; for EC1.5x for Smn protein expression: 7-point concentration curve, SMN HTRF, concentration producing 1.5 times Smn protein vs DMSO vehicle control; for maximum fold (Fold) increase of Smn protein: 7-point concentration data, fold relative to vehicle control
# Summary of the method: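 Fibroblasts, SMA patient; 5,000 cells/well; 7-pt curve, 3.16-fold serial dilution; 48 h, 37 °C, 5% CO2; RIPA lysis 1 h RT; anti-SMN d2 + kryptate overnight RT; HTRF 665/620 nm; fold vs DMSO; EC1.5×, max fold.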
structure (smiles),measurement,setting,value
"Cc1cn2cc(-c3cc(=O)n4cc(N5CCNC6(CC6)C5)ccc4n3)cc(C)c2n1 [Compound 809, 7-(4,7-diazaspiro[2.5]oct-7-yl)-2-(2,8-dimethylimidazo[1,2-a]pyridin-6-yl)-4H-pyrido[1,2-a]pyrimidin-4-one]",EC (1.5-fold increase),[1],< 0.1 µM
same,EC1.5x for Smn protein expression,[2],**** (an EC1.5x≤0.3 μM is indicated by four stars (****))
same,maximum fold (Fold) increase of Smn protein,[2],***** (a fold increase >1.65 is indicated by five stars (*****))
"Cc1cn2cc(-c3cc(=O)n4cc(C5CCN(C)CC5)ccc4n3)cc(F)c2n1 [Compound 810, 2-(8-fluoro-2-methylimidazo[1,2-a]pyridin-6-yl)-7-(1-methylpiperidin-4-yl)-4H-pyrido[1,2-a]pyrimidin-4-one]",EC (1.5-fold increase),[1],< 0.1 µM
same,EC1.5x for Smn protein expression,[2],**** (an EC1.5x≤0.3 μM is indicated by four stars (****))
same,maximum fold (Fold) increase of Smn protein,[2],***** (a fold increase >1.65 is indicated by five stars (*****))
"Cc1cn2cc(-c3cc(=O)n4cc(C5(O)CCNCC5)ccc4n3)cc(F)c2n1 [Compound 811, 2-(8-fluoro-2-methylimidazo[1,2-a]pyridin-6-yl)-7-(4-hydroxypiperidin-4-yl)-4H-pyrido[1,2-a]pyrimidin-4-one]",EC (1.5-fold increase),[1],0.3 to 1 µM
same,EC1.5x for Smn protein expression,[2],*** (an EC1.5× between >0.3 μM and ≤1 μM is indicated by three stars (***))
same,maximum fold (Fold) increase of Smn protein,[2],***** (a fold increase >1.65 is indicated by five stars (*****))
"CCc1nc(C)cn2nc(-c3cc(=O)n4cc(N5CCN6CCC[C@H]6C5)ccc4n3)cc12 [Compound 812, 2-(4-ethyl-6-methylpyrazolo[1,5-a]pyrazin-2-yl)-7-[(8aS)-hexahydropyrrolo[1,2-a]pyrazin-2(1H)-yl]-4H-pyrido[1,2-a]pyrimidin-4-one]",EC (1.5-fold increase),[1],< 0.1 µM
same,EC1.5x for Smn protein expression,[2],**** (an EC1.5x≤0.3 μM is indicated by four stars (****))
same,maximum fold (Fold) increase of Smn protein,[2],***** (a fold increase >1.65 is indicated by five stars (*****))
"CCc1nc(C)cn2nc(-c3cc(=O)n4cc(N5CCN6CCC[C@@H]6C5)ccc4n3)cc12 [Compound 813, 2-(4-ethyl-6-methylpyrazolo[1,5-a]pyrazin-2-yl)-7-[(8aR)-hexahydropyrrolo[1,2-a]pyrazin-2(1H)-yl]-4H-pyrido[1,2-a]pyrimidin-4-one]",EC (1.5-fold increase),[1],< 0.1 µM
same,EC1.5x for Smn protein expression,[2],**** (an EC1.5x≤0.3 μM is indicated by four stars (****))
same,maximum fold (Fold) increase of Smn protein,[2],***** (a fold increase >1.65 is indicated by five stars (*****))
"CCc1nc(C)cn2nc(-c3cc(=O)n4cc(N5CC[C@@H](N(C)C)C5)ccc4n3)cc12 [Compound 814, 7-[(3R)-3-(dimethylamino)pyrrolidin-1-yl]-2-(4-ethyl-6-methylpyrazolo[1,5-a]pyrazin-2-yl)-4H-pyrido[1,2-a]pyrimidin-4-one]",EC (1.5-fold increase),[1],< 0.1 µM
same,EC1.5x for Smn protein expression,[2],**** (an EC1.5x≤0.3 μM is indicated by four stars (****))
same,maximum fold (Fold) increase of Smn protein,[2],***** (a fold increase >1.65 is indicated by five stars (*****))
"CCc1nc(C)cn2nc(-c3cc(=O)n4cc(N5CC[C@H](N(C)C)C5)ccc4n3)cc12 [Compound 815, 7-[(3S)-3-(dimethylamino)pyrrolidin-1-yl]-2-(4-ethyl-6-methylpyrazolo[1,5-a]pyrazin-2-yl)-4H-pyrido[1,2-a]pyrimidin-4-one]",EC (1.5-fold increase),[1],< 0.1 µM
same,EC1.5x for Smn protein expression,[2],**** (an EC1.5x≤0.3 μM is indicated by four stars (****))
same,maximum fold (Fold) increase of Smn protein,[2],***** (a fold increase >1.65 is indicated by five stars (*****))
"Cc1cn2cc(-c3cc(=O)n4cc(N5CCN6CCC[C@@]6(C)C5)ccc4n3)cc(F)c2n1 [Compound 816, 2-(8-fluoro-2-methylimidazo[1,2-a]pyridin-6-yl)-7-[(8aS)-8a-methylhexahydropyrrolo[1,2-a]pyrazin-2(1H)-yl]-4H-pyrido[1,2-a]pyrimidin-4-one]",EC (1.5-fold increase),[1],< 0.1 µM
same,EC1.5x for Smn protein expression,[2],**** (an EC1.5x≤0.3 μM is indicated by four stars (****))
same,maximum fold (Fold) increase of Smn protein,[2],**** (a fold increase between >1.5 and ≤1.65 is indicated by four stars (****))
"CCc1nc(C)cn2nc(-c3cc(=O)n4cc(N5CCN(CC)CC5)cc(C)c4n3)cc12 [Compound 817, 2-(4-ethyl-6-methylpyrazolo[1,5-a]pyrazin-2-yl)-7-(4-ethylpiperazin-1-yl)-9-methyl-4H-pyrido[1,2-a]pyrimidin-4-one]",EC (1.5-fold increase),[1],< 0.1 µM
same,EC1.5x for Smn protein expression,[2],**** (an EC1.5x≤0.3 μM is indicated by four stars (****))
same,maximum fold (Fold) increase of Smn protein,[2],***** (a fold increase >1.65 is indicated by five stars (*****))
"CCc1nc(C)cn2nc(-c3cc(=O)n4cc(N5CCN6CCC[C@H]6C5)cc(C)c4n3)cc12 [Compound 818, 2-(4-ethyl-6-methylpyrazolo[1,5-a]pyrazin-2-yl)-7-[(8aS)-hexahydropyrrolo[1,2-a]pyrazin-2(1H)-yl]-9-methyl-4H-pyrido[1,2-a]pyrimidin-4-one]",EC (1.5-fold increase),[1],0.1 to 0.3 µM
same,EC1.5x for Smn protein expression,[2],*** (an EC1.5× between >0.3 μM and ≤1 μM is indicated by three stars (***))
same,maximum fold (Fold) increase of Smn protein,[2],***** (a fold increase >1.65 is indicated by five stars (*****))
"CCN1CCN(c2ccc3nc(-c4cc(C)c5nc(C)cn5c4)cc(=O)n3c2)CC1 [Compound 819, 2-(2,8-dimethylimidazo[1,2-a]pyridin-6-yl)-7-(4-ethylpiperazin-1-yl)-4H-pyrido[1,2-a]pyrimidin-4-one]",EC (1.5-fold increase),[1],< 0.1 µM
same,EC1.5x for Smn protein expression,[2],**** (an EC1.5x≤0.3 μM is indicated by four stars (****))
same,maximum fold (Fold) increase of Smn protein,[2],***** (a fold increase >1.65 is indicated by five stars (*****))
"Cc1cn2cc(-c3cc(=O)n4cc(N5CCN6CCC[C@H]6C5)ccc4n3)cc(C)c2n1 [Compound 820, 2-(2,8-dimethylimidazo[1,2-a]pyridin-6-yl)-7-[(8aS)-hexahydropyrrolo[1,2-a]pyrazin-2(1H)-yl]-4H-pyrido[1,2-a]pyrimidin-4-one]",EC (1.5-fold increase),[1],< 0.1 µM
same,EC1.5x for Smn protein expression,[2],**** (an EC1.5x≤0.3 μM is indicated by four stars (****))
same,maximum fold (Fold) increase of Smn protein,[2],***** (a fold increase >1.65 is indicated by five stars (*****))
"Cc1cn2cc(-c3cc(=O)n4cc(N5CCN6CCCC6(C)C5)ccc4n3)cc(C)c2n1 (stereo not drawn) [Compound 821, 2-(2,8-dimethylimidazo[1,2-a]pyridin-6-yl)-7-(8a-methylhexahydropyrrolo[1,2-a]pyrazin-2(1H)-yl)-4H-pyrido[1,2-a]pyrimidin-4-one]",EC (1.5-fold increase),[1],< 0.1 µM
same,EC1.5x for Smn protein expression,[2],**** (an EC1.5x≤0.3 μM is indicated by four stars (****))
same,maximum fold (Fold) increase of Smn protein,[2],***** (a fold increase >1.65 is indicated by five stars (*****))
"CCc1nc(C)cn2nc(-c3cc(=O)n4cc(N5CC[C@@H](N(C)C)C5)cc(C)c4n3)cc12 [Compound 822, 7-[(3R)-3-(dimethylamino)pyrrolidin-1-yl]-2-(4-ethyl-6-methylpyrazolo[1,5-a]pyrazin-2-yl)-9-methyl-4H-pyrido[1,2-a]pyrimidin-4-one]",EC (1.5-fold increase),[1],0.1 to 0.3 µM
same,EC1.5x for Smn protein expression,[2],*** (an EC1.5× between >0.3 μM and ≤1 μM is indicated by three stars (***))
same,maximum fold (Fold) increase of Smn protein,[2],**** (a fold increase between >1.5 and ≤1.65 is indicated by four stars (****))
